Source: patent EP0353416A2, “Use of ajoene and ajoene derivatives as cytostatics” (Gesellschaft für Biotechnologische Forschung mbH (GBF), priority 1988, dated 1990)

Assays:
[1] = Inhibition of proliferation by incorporation of radioactive thymidine, BHK cell culture; type: cell-based, Hamster; conditions: hamster; BHK cells; beyond the limit of reversible inhibition; read-out: irreversible, d. h. toxische Wirkung
Excerpt: (§1) Man ließ Ajoen auf eine Zellkultur der SV40-transformierten Baby-Hamster-Kidney-Linie (BHK; Fibroblast) einwirken. Die Proliferationshemmung wurde über den Einbau von radioaktivem Thymidin getestet.

[2] = tested on: SV40-transformierten Baby-Hamster-Kidney-Linie (BHK; Fibroblast); assay: as above; type: cell-based; conditions: BHK cells
Excerpt: as §1

Hela-Zellen = assay: Inhibition of proliferation (thymidine incorporation), Hela cells; type: cell-based; conditions: Hela cells (Beispiel 3)
Description: (§2) Man ließ Ajoen auf eine Zellkultur der SV40-transformierten Baby-Hamster-Kidney-Linie (BHK; Fibroblast) einwirken. Die Proliferationshemmung wurde über den Einbau von radioaktivem Thymidin getestet. Sie ließ sich ab 1 µg Ajoen/ml ermitteln. Die Figur zeigt eine typische Hemmkurve. Der Figur läßt sich entnehmen, daß die Ki-Werte (50 %) im Bereich von etwa 1 bis 10 und insbesondere etwa 2 bis 5 µg Ajoen/ml lagen.
(§3) Beispiel 1 wurde ferner abweichend mit folgenden Linien nachgearbeitet: Hela-Zellen (Beispiel 3), LTK-Mäusezellen (Fibro blasten; Beispiel 4) und humane FS4-Vorhautzellen (Fibroblast). Auch bei diesen Beispielen wurde die cytostatische und cytotoxische Wirkung des Ajoens bestätigt.

[3] = tested on: LTK-Mäusezellen (Fibroblasten); assay: Inhibition of proliferation (thymidine incorporation), LTK mouse cells; type: cell-based, Mäuse; conditions: LTK mouse cells (Beispiel 4)
Description: as §2, §3

[4] = tested on: humane FS4-Vorhautzellen (Fibroblast); assay: Inhibition of proliferation (thymidine incorporation), human FS4 foreskin cells; type: cell-based
Description: as §2, §3

C=CCSSC=CC[S+]([O-])CC=C (stereo not drawn) [Ajoen]
MCC [1]: > 20 µg/mL | Hemmung der Proliferation reversibel bis zu ([2]; upper concentration of reversible inhibition): ≤ 20 µg Ajoen/ml | minimal effective concentration ([2]; Mesocricetus auratus, lowest concentration at which inhibition was detectable, thymidine incorporation, read-out: Proliferationshemmung ließ sich ermitteln ab): ≥ 1 µg/mL | cytostatische und cytotoxische Wirkung (Hela-Zellen): bestätigt | cytostatische und cytotoxische Wirkung [3]: bestätigt | cytostatische und cytotoxische Wirkung [4]: bestätigt
